From ChEMBL document CHEMBL1133175, “QSAR analysis of Delta(8)-THC analogues: relationship of side-chain conformation to cannabinoid receptor affinity and pharmacological potency” (J Med Chem, 2000)

Assays:
Cannabinoid receptor 1 [1] = molecular target: T1, Cannabinoid receptor 1 (Homo sapiens, UniProt P21554); assay: Tested for binding affinity against Cannabinoid receptor 1 (CB1).
Cannabinoid receptor 1 [2] = molecular target: T1, Cannabinoid receptor 1; assay: Binding affinity against Cannabinoid receptor 1.
Cannabinoid receptor 1 [3] = molecular target: T1, Cannabinoid receptor 1; assay: Tested for binding affinity against Cannabinoid receptor 1 (CB1)

T1 sequence (P21554 whole entry): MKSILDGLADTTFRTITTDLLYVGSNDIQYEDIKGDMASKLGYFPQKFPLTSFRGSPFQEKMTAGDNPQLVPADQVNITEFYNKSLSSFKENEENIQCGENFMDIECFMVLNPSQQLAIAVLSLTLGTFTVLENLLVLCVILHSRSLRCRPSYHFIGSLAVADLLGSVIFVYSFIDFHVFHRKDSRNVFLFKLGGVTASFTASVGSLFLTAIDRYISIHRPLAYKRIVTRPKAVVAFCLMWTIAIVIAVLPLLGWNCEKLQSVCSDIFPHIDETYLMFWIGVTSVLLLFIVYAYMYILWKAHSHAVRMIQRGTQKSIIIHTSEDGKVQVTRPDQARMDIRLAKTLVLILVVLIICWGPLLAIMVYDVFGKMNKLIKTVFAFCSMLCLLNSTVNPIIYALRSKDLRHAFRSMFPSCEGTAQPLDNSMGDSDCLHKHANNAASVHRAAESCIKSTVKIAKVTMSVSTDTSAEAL

Q: Which Kd (Cannabinoid receptor 1 [1]) does the source give for `CC1=CCC2C(C1)c1c(O)cc(CC#CCCO)cc1OC2(C)C` (stereo not given) here?
A: 448 nM

Q: Which Kd (Cannabinoid receptor 1 [2]) does the source give for `COC(=O)C#CCCc1cc(O)c2c(c1)OC(C)(C)C1CC=C(C)CC21` (stereo not given) here?
A: > 10000 nM

Q: For `CC1=CCC2C(C1)c1c(O)cc(C/C=C/CCCBr)cc1OC2(C)C` (stereo not given), which Kd (Cannabinoid receptor 1 [2]) is on record?
A: 1.66 nM

Q: Which Kd (Cannabinoid receptor 1 [1]) does the source give for `CC(=O)NCCC#CCc1cc(O)c2c(c1)OC(C)(C)C1CC=C(C)CC21` (stereo not given) here?
A: 307 nM

Q: With `CCCC#CCCCc1cc(O)c2c(c1)OC(C)(C)C1CC=C(C)CC21` (stereo not given) as the compound, how does the Kd (Cannabinoid receptor 1 [2]) read?
A: 19 nM

Q: `CC1=CCC2C(C1)c1c(O)cc(C/C=C/CCCO)cc1OC2(C)C` (stereo not given) was tested. Which Kd (Cannabinoid receptor 1 [1]) did it give?
A: 53.7 nM

Q: With `CC1=CCC2C(C1)c1c(O)cc(C/C=C/CCCC[N+](=O)[O-])cc1OC2(C)C` (stereo not given) as the compound, how does the Kd (Cannabinoid receptor 1 [1]) read?
A: 3.56 nM

Q: How did the Kd (Cannabinoid receptor 1 [2]) turn out when `CCCCCCC#CCc1cc(O)c2c(c1)OC(C)(C)C1CC=C(C)CC21` (stereo not given) was run?
A: 3.7 nM

Q: With `COCCC/C=C/Cc1cc(O)c2c(c1)OC(C)(C)C1CC=C(C)CC21` (stereo not given) as the compound, how does the Kd (Cannabinoid receptor 1 [1]) read?
A: 11.5 nM

Q: How did the Kd (Cannabinoid receptor 1 [2]) turn out when `CC1=CCC2C(C1)c1c(O)cc(CC#CCCC[N+](=O)[O-])cc1OC2(C)C` (stereo not given) was run?
A: 5.34 nM

Q: `CCCC/C=C/CCc1cc(O)c2c(c1)OC(C)(C)C1CC=C(C)CC21` (stereo not given) was tested. Which Kd (Cannabinoid receptor 1 [2]) did it give?
A: 3.36 nM

Q: How did the Kd (Cannabinoid receptor 1 [2]) turn out when `CCC/C=C/CCCc1cc(O)c2c(c1)OC(C)(C)C1CC=C(C)CC21` (stereo not given) was run?
A: 11 nM

Q: How did the Kd (Cannabinoid receptor 1 [2]) turn out when `CC1=CCC2C(C1)c1c(O)cc(C#CCCCC#N)cc1OC2(C)C` (stereo not given) was run?
A: 104 nM

Q: How did the Kd (Cannabinoid receptor 1 [2]) turn out when `CC1=CCC2C(C1)c1c(O)cc(C/C=C/CCCC#N)cc1OC2(C)C` (stereo in doubt; 30) was run?
A: 1.25 nM

Q: For `CC1=CCC2C(C1)c1c(O)cc(C=C=CCCCC(=O)O)cc1OC2(C)C` (stereo not given), which Kd (Cannabinoid receptor 1 [2]) is on record?
A: 3170 nM

Q: How did the Kd (Cannabinoid receptor 1 [2]) turn out when `CCCCC/C=C/Cc1cc(O)c2c(c1)OC(C)(C)C1CC=C(C)CC21` (stereo not given) was run?
A: 3.19 nM

Q: With `CC1=CCC2C(C1)c1c(O)cc(C/C=C/CCCC#N)cc1OC2(C)C` (stereo in doubt; 29) as the compound, how does the Kd (Cannabinoid receptor 1 [2]) read?
A: 0.77 nM

Q: `CCCCC/C=C/c1cc(O)c2c(c1)OC(C)(C)C1CC=C(C)CC21` (stereo not given) was tested. Which Kd (Cannabinoid receptor 1 [2]) did it give?
A: 0.86 nM

Q: Which Kd (Cannabinoid receptor 1 [2]) does the source give for `CC1=CCC2C(C1)c1c(O)cc(CC#CCBr)cc1OC2(C)C` (stereo not given) here?
A: 143 nM

Q: For `COC(=O)C#CCc1cc(O)c2c(c1)OC(C)(C)C1CC=C(C)CC21` (stereo not given), which Kd (Cannabinoid receptor 1 [2]) is on record?
A: 731 nM

Q: For `C#CCCc1cc(O)c2c(c1)OC(C)(C)C1CC=C(C)CC21` (stereo not given), which Kd (Cannabinoid receptor 1 [2]) is on record?
A: 367 nM

Q: Which Kd (Cannabinoid receptor 1 [3]) does the source give for `C#CCCCC#CCc1cc(O)c2c(c1)OC(C)(C)C1CC=C(C)CC21` (stereo not given) here?
A: 4.7 nM

Q: For `CC1=CCC2C(C1)c1c(O)cccc1OC2(C)C` (stereo not given), which Kd (Cannabinoid receptor 1 [2]) is on record?
A: 45 nM

Q: Which Kd (Cannabinoid receptor 1 [2]) does the source give for `CCCCC#CCCc1cc(O)c2c(c1)OC(C)(C)C1CC=C(C)CC21` (stereo not given) here?
A: 9 nM

Q: `CC1=CCC2C(C1)c1c(O)cc(CC#CC(C)Br)cc1OC2(C)C` (stereo not given) was tested. Which Kd (Cannabinoid receptor 1 [1]) did it give?
A: 25 nM

Q: Which Kd (Cannabinoid receptor 1 [2]) does the source give for `CC1=CCC2C(C1)c1c(O)cc(CC#CCCCBr)cc1OC2(C)C` (stereo not given) here?
A: 1.2 nM

Q: With `CC1=CCC2C(C1)c1c(O)cc(CC#CCCC#N)cc1OC2(C)C` (stereo not given) as the compound, how does the Kd (Cannabinoid receptor 1 [2]) read?
A: 31 nM

Q: For `CC1=CCC2C(C1)c1c(O)cc(C/C=C/CCCF)cc1OC2(C)C` (stereo not given), which Kd (Cannabinoid receptor 1 [1]) is on record?
A: 20.9 nM

Q: Which Kd (Cannabinoid receptor 1 [2]) does the source give for `C#CCCCC#Cc1cc(O)c2c(c1)OC(C)(C)C1CC=C(C)CC21` (stereo not given) here?
A: 460 nM

Q: `CCCCCC#CCc1cc(O)c2c(c1)OC(C)(C)C1CC=C(C)CC21` (stereo not given) was tested. Which Kd (Cannabinoid receptor 1 [3]) did it give?
A: 4.9 nM

Q: Which Kd (Cannabinoid receptor 1 [2]) does the source give for `CCCC#CCc1cc(O)c2c(c1)OC(C)(C)C1CC=C(C)CC21` (stereo not given) here?
A: 11 nM

Q: `CC(=O)NCCC/C=C/Cc1cc(O)c2c(c1)OC(C)(C)C1CC=C(C)CC21` (stereo not given) was tested. Which Kd (Cannabinoid receptor 1 [1]) did it give?
A: 16.7 nM

Q: How did the Kd (Cannabinoid receptor 1 [1]) turn out when `CCCCCCC(C)(C)c1cc(O)c2c(c1)OC(C)(C)C1CC=C(C)CC21` (stereo not given) was run?
A: 0.77 nM

Q: For `CCCCCC#CCc1cc(OC)c2c(c1)OC(C)(C)C1CC=C(C)CC21` (stereo not given), which Kd (Cannabinoid receptor 1 [2]) is on record?
A: 189 nM

Q: `CCCCCC#Cc1cc(O)c2c(c1)OC(C)(C)C1CC=C(C)CC21` (stereo not given) was tested. Which Kd (Cannabinoid receptor 1 [1]) did it give?
A: 36 nM
